Read-outs that look alike come from different tables or passages of the source.
Tests used:
[1] = molecular target: T1, mutant HIV reverse transcriptase (Y181C mutation) (Human immunodeficiency virus type 1 group M subtype B, UniProt P04585, Y768C); test: Analogous RT inhibition assay, Y181C mutant; assay type: biochemical
T1 construct: mutations that occur in the reverse transcriptase segment of the pol gene; made in house
Experimental: (§1) 100 μL reaction mixtures were initiated with a combination of primer-template substrate (10 nM final concentration) and dNTPs (0.6 μM dNTPs, 0.75 μM [^3H]-dGTP). The heterodimeric nucleic acid substrate was generated by annealing the DNA primer pD500 (described in Shaw-Reid et al., J. Biol. Chem., 278: 2777-2780; obtained from Integrated DNA Technologies) to t500, a 500 nucleotide RNA template created by in vitro transcription (see Shaw-Reid et al., J. Biol. Chem., 278: 2777-2780). After 1 hour incubation at 37° C., reactions were quenched by 10 μl, streptavidin scintillation proximity assay beads (10 mg/mL, from Amersham Biosciences) in 0.5 M EDTA, pH 8. Microtiter plates were incubated an additional 10 minutes at 37° C. prior to quantification via Topcount (Packard).
(§2) Analogous assays were conducted substituting mutant HIV strains to determine the […] inhibition of compounds of the present invention against mutant HIV reverse transcriptase. In one strain the reverse transcriptase has the Y181C mutation and in the other strain the reverse transcriptase has the K103N mutation. The mutations were generated with the […] site-directed mutagenesis kit (Stratagene). […] The compounds set forth in the other Examples were not tested in the Y181C assay. […] The compounds set forth in the other Examples were not tested in the K103N assay.

[2] = system: acute HIV infection of T-lymphoid cells; test: Assay for inhibition of HIV replication (spread assay); assay type: cell-based; details: Human immunodeficiency virus 1; inhibition of acute HIV infection of T-lymphoid cells; read-out: IC95, spread assay
Experimental: An assay for the inhibition of acute HIV infection of T-lymphoid cells (alternatively referred to herein as the “spread assay”) was conducted in accordance with Vacca, J. P. et al., Proc. Natl. Acad. Sci. USA 1994, 91: 4096. […] The compounds set forth in the other Examples were not tested in the spread assay.

[3] = molecular target: T2, mutant HIV reverse transcriptase (K103N mutation) (Human immunodeficiency virus type 1 group M subtype B, UniProt P04585, K690N); test: Analogous RT inhibition assay, K103N mutant; assay type: biochemical
T2 construct: mutations that occur in the reverse transcriptase segment of the pol gene; made in house
Experimental: as §1, §2

[4] = reverse transcriptase with Y181C mutation, tested up to 20 micromolar, read-out: IC50, Y181C mutant assay
[5] = reverse transcriptase with K103N mutation, tested up to 20 micromolar, read-out: IC50, K103N mutant assay

Row | Compound | IC50 [1] [nM] | IC95 [2] [nM] | IC50 [3] [nM] | IC50 [1, 4] [nM] | IC50 [3, 5] [nM]
1 | CCNCC(=O)Nc1[nH]c2ccc(Cl)cc2c1S(=O)(=O)c1ccccc1 [Example 21, N^1-[5-chloro-3-(phenylsulfonyl)-1H-indol-2-yl]-N^2-ethylglycinamide] | < 1000 | < 1000 | < 1000 | – | –
2 | O=C(NCCNc1ccccc1)Nc1[nH]c2ccc(Br)cc2c1S(=O)(=O)N1CCCC1 [Example 93, N-(2-anilinoethyl)-N′-[5-bromo-3-(pyrrolidin-1-ylsulfonyl)-1H-indol-2-yl]urea] | – | – | 1000 to 20000 | > 20000 | –
3 | O=C(NCc1cccnc1)Nc1[nH]c2ccc(Br)cc2c1S(=O)(=O)N1CCCC1 [Example 81, N-[5-bromo-3-(pyrrolidin-1-ylsulfonyl)-1H-indol-2-yl]-N′-(pyridin-3-ylmethyl)urea] | 1000 to 20000 | – | – | – | < 1000
4 | CN1CCN(C(=O)Nc2[nH]c3ccc(Br)cc3c2S(=O)(=O)N2CCCC2)CC1 [Example 91, N-[5-bromo-3-(pyrrolidin-1-ylsulfonyl)-1H-indol-2-yl]-4-methylpiperazine-1-carboxamide] | – | – | 1000 to 20000 | > 20000 | –
5 | CC(C)C(=O)Nc1[nH]c2ccc(Cl)cc2c1S(=O)(=O)c1ccccc1 [Example 15, N-[5-chloro-3-(phenylsulfonyl)-1H-indol-2-yl]-2-methylpropanamide] | 1000 to 20000 | < 1000 | 1000 to 20000 | – | –
6 | O=C(Nc1ccc(F)cc1)Nc1[nH]c2ccc(Cl)cc2c1S(=O)(=O)c1ccccc1 [Example 31, N-[5-chloro-3-(phenylsulfonyl)-1H-indol-2-yl]-N′-(4-fluorophenyl)urea] | > 20000 | < 1000 | > 20000 | – | –
7 | CC(=O)OCC(=O)Nc1[nH]c2ccc(Cl)cc2c1S(=O)(=O)c1ccccc1 [Example 5, 2-{[5-chloro-3-(phenylsulfonyl)-1H-indol-2-yl]amino}-2-oxoethyl acetate] | < 1000 | < 1000 | < 1000 | – | –
8 | O=C(NCc1ccccn1)Nc1[nH]c2ccc(Br)cc2c1S(=O)(=O)N1CCCC1 [Example 80, N-[5-bromo-3-(pyrrolidin-1-ylsulfonyl)-1H-indol-2-yl]-N′-(pyridin-2-ylmethyl)urea] | 1000 to 20000 | – | – | – | < 1000
9 | O=C(Nc1[nH]c2ccc(Br)cc2c1S(=O)(=O)N1CCCC1)NC1CCCC1 [Example 78, N-[5-bromo-3-(pyrrolidin-1-ylsulfonyl)-1H-indol-2-yl]-N′-cyclopentylurea] | > 20000 | – | – | – | < 1000
10 | CC(C)NC(=O)Nc1[nH]c2ccc(Br)cc2c1S(=O)(=O)N1CCCC1 [Example 74, N-[5-bromo-3-(pyrrolidin-1-ylsulfonyl)-1H-indol-2-yl]-N′-isopropylurea] | – | – | – | – | < 1000
11 | O=C(Nc1ccccc1)Nc1[nH]c2ccc(Br)cc2c1S(=O)(=O)N1CCCC1 [Example 73, N-[5-bromo-3-(pyrrolidin-1-ylsulfonyl)-1H-indo1-2-yl]-N′-phenylurea] | – | < 1000 | – | – | < 1000
12 | O=C(NCCc1ccccc1)Nc1[nH]c2ccc(Br)cc2c1S(=O)(=O)N1CCCC1 [Example 85, N-[5-bromo-3-(pyrrolidin-1-ylsulfonyl)-1H-indol-2-yl]-N′-(2-phenylethyl)urea] | – | – | – | > 20000 | < 1000
13 | O=C(NCc1ccccc1O)Nc1[nH]c2ccc(Br)cc2c1S(=O)(=O)N1CCCC1 [Example 79, N-[5-bromo-3-(pyrrolidin-1-ylsulfonyl)-1H-indol-2-yl]-N′-(2-hydroxybenzyl)urea] | > 20000 | – | – | – | < 1000
14 | O=C(Nc1ccccc1F)Nc1[nH]c2ccc(Cl)cc2c1S(=O)(=O)c1ccccc1 [Example 2, N-[5-chloro-3-(phenylsulfonyl)-1H-indol-2-yl]-N-(2-fluorophenyl)urea] | – | < 1000 | < 1000 | – | –
15 | CN(C)CCCNC(=O)Nc1[nH]c2ccc(Br)cc2c1S(=O)(=O)N1CCCC1 [Example 94, N-[5-bromo-3-(pyrrolidin-1-ylsulfonyl)-1H-indol-2-yl]-N′-[3-(dimethylamino)propyl]urea] | 1000 to 20000 | – | < 1000 | – | –
16 | O=C(NCc1cncs1)Nc1[nH]c2ccc(Br)cc2c1S(=O)(=O)N1CCCC1 [Example 83, N-[5-bromo-3-(pyrrolidin-1-ylsulfonyl)-1H-indol-2-yl]-N′-(1,3-thiazol-5-ylmethyl)urea] | 1000 to 20000 | – | – | – | < 1000
17 | NC(=O)C1CCCN(C(=O)Nc2[nH]c3ccc(Br)cc3c2S(=O)(=O)N2CCCC2)C1 (stereo not shown) [Example 87, N^1-[5-bromo-3-(pyrrolidin-1-ylsulfonyl)-1H-indol-2-yl]piperidine-1,3-dicarboxamide] | – | – | – | > 20000 | < 1000

Row | Compound | IC50 [1] [nM] | IC95 [2] [nM] | IC50 [3] [nM] | IC50 [1, 4] [nM] | IC50 [3, 5] [nM]
18 | O=C(CN1CCC(c2ccncc2)CC1)Nc1[nH]c2ccc(Cl)cc2c1S(=O)(=O)c1ccccc1 [Example 37, N-[5-chloro-3-(phenylsulfonyl)-1H-indol-2-yl]-2-(4-pyridin-4-ylpiperidin-1-yl)acetamide] | > 20000 | – | > 20000 | – | –
19 | O=C(CNCc1cscn1)Nc1[nH]c2ccc(Cl)cc2c1S(=O)(=O)c1ccccc1 [Example 38, N^1-[5-chloro-3-(phenylsulfonyl)-1H-indol-2-yl]-N^2-(1,3-thiazol-4-ylmethyl)glycinamide] | < 1000 | – | < 1000 | – | –
20 | CC(C)(C)CCNC(=O)Nc1[nH]c2ccc(Br)cc2c1S(=O)(=O)N1CCCC1 [Example 92, N-[5-bromo-3-(pyrrolidin-1-ylsulfonyl)-1H-indol-2-yl]-N′-(3,3-dimethylbutyl)urea] | – | – | > 20000 | > 20000 | –
21 | CCCCNC(=O)Nc1[nH]c2ccc(Cl)cc2c1S(=O)(=O)c1ccccc1 [Example 48, N-butyl-N′-[5-chloro-3-(phenylsulfonyl)-1H-indol-2-yl]urea] | – | < 1000 | – | – | –
22 | O=C(Nc1[nH]c2ccc(Cl)cc2c1S(=O)(=O)c1ccccc1)C1CCC1 [Example 9, N-[5-chloro-3-(phenylsulfonyl)-1H-indol-2-yl]cyclobutanecarboxamide] | – | < 1000 | – | – | –
23 | O=C(NCCc1ccccn1)Nc1[nH]c2ccc(Br)cc2c1S(=O)(=O)N1CCCC1 [Example 88, N-[5-bromo-3-(pyrrolidin-1-ylsulfonyl)-1H-indol-2-yl]-N′-(2-pyridin-2-ylethyl)urea] | – | – | 1000 to 20000 | > 20000 | –
24 | O=C(Nc1cccc(C(F)(F)F)c1)Nc1[nH]c2ccc(Cl)cc2c1S(=O)(=O)c1ccccc1 [Example 68, N-[5-chloro-3-(phenylsulfonyl)-1H-indol-2-yl]-N′-[3-(trifluoromethyl)phenyl]urea] | – | < 1000 | – | – | –
25 | O=C(CN1CCCC(F)(F)C1)Nc1[nH]c2ccc(Cl)cc2c1S(=O)(=O)c1ccccc1 [Example 17, N-[5-chloro-3-(phenylsulfonyl)-1H-indol-2-yl]-2-(3,3-difluoropiperidin-1-yl)acetamide] | – | < 1000 | – | – | –
26 | Cn1ccnc1CNCC(=O)Nc1[nH]c2ccc(Cl)cc2c1S(=O)(=O)c1ccccc1 [Example 42, N^1-[5-chloro-3-(phenylsulfonyl)-1H-indol-2-yl]-N^2-[(1-methyl-1H-imidazol-2-yl)methyl]glycinamide] | – | < 1000 | – | – | –
27 | CN1CCN(CC(=O)Nc2[nH]c3ccc(Cl)cc3c2S(=O)(=O)c2ccccc2)CC1 [Example 61, N-[5-chloro-3-(phenylsulfonyl)-1H-indol-2-yl]-2-(4-methylpiperazin-1-yl)acetamide] | – | < 1000 | – | – | –
28 | O=C(Nc1[nH]c2ccc(Cl)cc2c1S(=O)(=O)c1ccccc1)C1CCCCC1 [Example 60, N-[5-chloro-3-(phenylsulfonyl)-1H-indol-2-yl]cyclohexanecarboxamide] | – | < 1000 | – | – | –
29 | O=C(Nc1[nH]c2ccc(Br)cc2c1S(=O)(=O)N1CCCC1)N1CCCC1 [Example 84, N-[5-bromo-3-(pyrrolidin-1-ylsulfonyl)-1H-indol-2-yl]pyrrolidine-1-carboxamide] | – | – | – | > 20000 | < 1000
30 | O=C(NCc1cccc(F)c1)Nc1[nH]c2ccc(Br)cc2c1S(=O)(=O)N1CCCC1 [Example 70] | – | – | – | – | < 1000
31 | CCOC(=O)CNC(=O)Nc1[nH]c2ccc(Cl)cc2c1S(=O)(=O)c1ccccc1 [Example 27, ethyl N-({[5-chloro-3-(phenylsulfonyl)-1H-indol-2-yl]amino}carbonyl)glycinate] | – | < 1000 | – | – | –
32 | CCC(=O)Nc1[nH]c2ccc(Cl)cc2c1S(=O)(=O)c1ccccc1 [Example 7, N-[5-chloro-3-(phenylsulfonyl)-1H-indol-2-yl]propanamide] | – | < 1000 | – | – | –
33 | O=C(Nc1cc(F)cc(F)c1)Nc1[nH]c2ccc(Cl)cc2c1S(=O)(=O)c1ccccc1 [Example 66, N-[5-chloro-3-(phenylsulfonyl)-1H-indol-2-yl]-N′-(3,5-difluorophenyl)urea] | – | < 1000 | – | – | –
